Reference: patent US8889878B2, “Haloalky-substituted amides as insecticides and acaricides” (Bayer CropScience AG, priority 2009, dated 2014)

What was measured:
[1] = system: mustard beetle (Phaedon cochleariae); assay: Phaedon test (PHAECO spray treatment), Example 7; format: in vivo; conditions: application rate 20 g/ha, china cabbage leaf discs sprayed, after 7 days
Method: Phaedon Test (PHAECO Spray Treatment)
(§1) • Solvent: 78.0 parts by weight of acetone • 1.5 parts by weight of dimethylformamide • Emulsifier: 0.5 part by weight of alkylaryl polyglycol ether
To prepare an active ingredient formulation, 1 part by weight of active ingredient is mixed with the stated amounts of solvent and emulsifier, and the concentrate is diluted with emulsifier-containing water to the desired concentration. Leaf discs from china cabbage (Brassica pekinensis) are sprayed with an active ingredient formulation of the desired concentration and, after drying, populated with larvae of the mustard beetle (Phaedon cochleariae).
After 7 days, the efficacy in % is determined. 100% means that all beetle larvae were killed; 0% means that no beetle larvae were killed.

[2] = logP by HPLC on reverse-phase column (EEC Directive 79/831 Annex V.A8); format: physicochemical
Method: The logP values reported in the above Tables and Preparation Examples were determined according to EEC Directive 79/831 Annex V.A8 by HPLC (High Performance Liquid Chromatography) on a reverse-phase column (C18). Temperature 43° C.

Boophilus microplus = Boophilus microplus test (BOOPMI injection), Example 11; format: in vivo; conditions: application rate 20 μg/animal, injected into abdomen, after 7 days
Method: Boophilus microplus Test (BOOPMI Injection) • Solvent: dimethyl sulphoxide To prepare an appropriate active ingredient formulation, 10 mg of active ingredient are mixed with 0.5 ml of solvent and the concentrate is diluted with solvent to the desired concentration. The active ingredient solution is injected into the abdomen (Boophilus microplus), and the animals are transferred to dishes and stored in a climate-controlled room. The efficacy was assessed by the number of fertile eggs laid. After 7 days, the efficacy in % is determined. 100% means that none of the ticks has laid any fertile eggs.

[3] = system: armyworm (Spodoptera frugiperda); assay: Spodoptera frugiperda test (SPODFR spray treatment), Example 15; format: in vivo; conditions: maize leaf discs sprayed, after 7 days
Method: Spodoptera frugiperda Test (SPODFR Spray Treatment)
as §1
To prepare an appropriate active ingredient formulation, 1 part by weight of active ingredient is mixed with the stated amounts of solvent and emulsifier, and the concentrate is diluted with emulsifier-containing water to the desired concentration. Leaf discs from maize (Zea mays) are sprayed with an active ingredient formulation of the desired concentration and, after drying, populated with caterpillars of the armyworm (Spodoptera frugiperda).
After 7 days, the efficacy in % is determined. 100% means that all caterpillars were killed; 0% means that no caterpillars were killed.

[4] = HPLC, C18 reverse phase, 43° C., acidic range pH 2.7, calibration with alkan-2-ones
[5] = HPLC-MS, HPLC on reverse-phase column

Row | Structure (SMILES) | efficacy in % [1] | logP ([2]; HPLC-MS) | other results
1 | O=C(NC(c1cc(Cl)cc(Cl)c1)C(F)(F)F)c1cc2ccc(C(=O)NC3CC3)c(Cl)c2[nH]1 (racemic) [Ic-22] | 100% | – | logP [2, 4]: HPLC-MS: logP = 3.42; mass
2 | O=C(NC(c1cccc(C(F)(F)F)c1)C(F)(F)F)c1cc2cc(C(=O)NCc3ccccn3)c(Cl)cc2[nH]1 (racemic) [Ic-23] | 100% | – | logP [2, 4]: HPLC-MS: logP = 2.49; mass
3 | O=C(/C=C/c1ccc(C(=O)NC2CC2)c(C(F)(F)F)c1)NC(c1ccc(Cl)c(Cl)c1)C(F)(F)F (centres unmarked) [Ia-37] | 100% | HPLC-MS: logP = 3.41; mass | –
4 | O=C(/C=C/c1ccc(C(=O)NC2CC2c2ccccc2)c(C(F)(F)F)c1)NC(c1cccc(C(F)(F)F)c1)C(F)(F)F (centres unmarked) [Ia-71] | 100% | HPLC-MS: logP = 4.22; mass | –
5 | Cc1cc(/C=C/C(=O)NC(c2cccc(C(F)(F)F)c2)C(F)(F)F)ccc1C(=O)NC1COC1 (centres unmarked) [Ia-83] | 100% | HPLC-MS: logP = 2.69 mass | –
6 | O=C(/C=C/c1ccc(C(=O)Nc2ccncc2)c(C(F)(F)F)c1)NC(c1cccc(C(F)(F)F)c1)C(F)(F)F (centres unmarked) [Ia-84] | 100% | HPLC-MS: logP = 1.99 mass | –
7 | Cc1cc(/C=C/C(=O)NC(c2cccc(C(F)(F)F)c2)C(F)(F)F)ccc1C(=O)NC1CCOCC1 (centres unmarked) [Ia-86] | 100% | HPLC-MS: logP = 2.89 mass | –
8 | Cc1cc(/C=C/C(=O)NC(c2cccc(C(F)(F)F)c2)C(F)(F)F)ccc1C(=O)NCc1ccc(F)cn1 (centres unmarked) [Ia-87] | 100% | HPLC-MS: logP = 3.13 mass | –
9 | Cc1cc(/C=C/C(=O)NC(c2cccc(C(F)(F)F)c2)C(F)(F)F)ccc1C(=O)Nc1ccncc1 (centres unmarked) [Ia-88] | 100% | HPLC-MS: logP = 1.87 mass | –
10 | CN(C(=O)c1ccc(/C=C/C(=O)NC(c2cccc(C(F)(F)F)c2)C(F)(F)F)cc1Br)c1ccccn1 (centres unmarked) [Ia-89] | 100% | HPLC-MS: logP = 3.47 mass | –
11 | O=C(/C=C/c1ccc(C(=O)Nc2ccncc2)c(Br)c1)NC(c1cccc(C(F)(F)F)c1)C(F)(F)F (centres unmarked) [Ia-91] | 100% | HPLC-MS: logP = 1.96 mass | –
12 | O=C(/C=C/c1ccc(C(=O)NC2CCOCC2)c(Cl)c1)NC(c1cccc(C(F)(F)F)c1)C(F)(F)F (centres unmarked) [Ia-97] | 100% | HPLC-MS: logP = 2.99 mass | –
13 | O=C(/C=C/c1ccc(C(=O)Nc2ccccn2)c(Cl)c1)NC(c1cccc(C(F)(F)F)c1)C(F)(F)F (centres unmarked) [Ia-98] | 100% | HPLC-MS: logP = 3.47 mass | –
14 | Cc1cc(/C=C/C(=O)NC(c2cccc(C(F)(F)F)c2)C(F)(F)F)ccc1C(=O)NC1CCC1 (centres unmarked) [Ia-101] | 100% | HPLC-MS: logP = 3.53 mass | –
15 | Cc1cc(/C=C/C(=O)NC(c2cccc(C(F)(F)F)c2)C(F)(F)F)ccc1C(=O)NC(C)C (centres unmarked) [Ia-102] | 100% | HPLC-MS: logP = 3.27 mass | –
16 | COC(=O)N(C)NC(=O)c1ccc(/C=C/C(=O)NC(c2cccc(C(F)(F)F)c2)C(F)(F)F)cc1Br (centres unmarked) [Ia-103] | 100% | HPLC-MS: logP = 2.89 mass | –
17 | O=C(/C=C/c1ccc(C(=O)NCC(F)F)c(Br)c1)NC(c1cccc(C(F)(F)F)c1)C(F)(F)F (centres unmarked) [Ia-104] | 100% | HPLC-MS: logP = 3.23 mass | –
18 | C#CCNC(=O)c1ccc(/C=C/C(=O)NC(c2cccc(C(F)(F)F)c2)C(F)(F)F)cc1Br (centres unmarked) [Ia-105] | 100% | HPLC-MS: logP = 3.09 mass | –
19 | O=C(/C=C/c1ccc(C(=O)NC2CCCNC2=O)c(Cl)c1)NC(c1cccc(C(F)(F)F)c1)C(F)(F)F (centres unmarked) [Ia-106] | 100% | HPLC-MS: logP = 2.61 mass | –
20 | O=C(/C=C/c1ccc(C(=O)NCC(=O)NCC(F)(F)F)c(Cl)c1)NC(c1cccc(C(F)(F)F)c1)C(F)(F)F (centres unmarked) [Ia-107] | 100% | HPLC-MS: logP = 2.99 mass | –
21 | COC(=O)NNC(=O)c1ccc(/C=C/C(=O)NC(c2cccc(C(F)(F)F)c2)C(F)(F)F)cc1Cl (centres unmarked) [Ia-109] | 100% | HPLC-MS: logP = 2.72 mass | –
22 | O=C(/C=C/c1ccc(C(=O)Nc2cc(Cl)ccn2)c(C(F)(F)F)c1)NC(c1cccc(C(F)(F)F)c1)C(F)(F)F (centres unmarked) [Ia-121] | – | HPLC-MS: logP = 4.3; mass | efficacy in % (fertile eggs laid) (Boophilus microplus): 100%

Row | Structure (SMILES) | efficacy in % [1] | logP ([2]; HPLC-MS) | other results
23 | Cn1ccc(NC(=O)c2ccc(/C=C/C(=O)NC(c3cccc(C(F)(F)F)c3)C(F)(F)F)cc2C(F)(F)F)n1 (centres unmarked) [Ia-124] | – | HPLC-MS: logP = 3.28; mass | efficacy in % ([3]; application rate 100 g/ha): 100%; efficacy in % (fertile eggs laid) (Boophilus microplus): 100%
24 | O=C(/C=C/c1ccc(C(=O)Nc2ccncn2)c(C(F)(F)F)c1)NC(c1cccc(C(F)(F)F)c1)C(F)(F)F (centres unmarked) [Ia-125] | – | HPLC-MS: logP = 3.35; mass | efficacy in % ([3]; application rate 100 g/ha): 100%; efficacy in % (fertile eggs laid) (Boophilus microplus): 100%
25 | O=C(/C=C/c1ccc(C(=O)NCc2cc(Cl)ccn2)c(C(F)(F)F)c1)NC(c1cccc(C(F)(F)F)c1)C(F)(F)F (centres unmarked) [Ia-126] | – | HPLC-MS: logP = 3.68; mass | efficacy in % (fertile eggs laid) (Boophilus microplus): 100%
26 | N#CCNC(=O)c1ccc(/C=C/C(=O)NC(c2cccc(C(F)(F)F)c2)C(F)(F)F)cc1C(F)(F)F (centres unmarked) [Ia-129] | – | HPLC-MS: logP = 3.19; mass | efficacy in % ([3]; application rate 100 g/ha): 100%; efficacy in % (fertile eggs laid) (Boophilus microplus): 100%
27 | O=C(/C=C/c1ccc(-n2cccn2)c(C(F)(F)F)c1)NC(c1cccc(C(F)(F)F)c1)C(F)(F)F (centres unmarked) [Ia-135] | – | HPLC-MS: logP = 3.95; mass | efficacy in % (fertile eggs laid) (Boophilus microplus): 100%
28 | CCC(C)NC(=O)c1ccc(/C=C/C(=O)NC(c2cccc(C(F)(F)F)c2)C(F)(F)F)cc1C(F)(F)F (centres unmarked) [Ia-144] | – | HPLC-MS: logP = 3.84; mass | efficacy in % (fertile eggs laid) (Boophilus microplus): 100%
29 | O=C(/C=C/c1ccc(C(=O)NCC=CCl)c(C(F)(F)F)c1)NC(c1cccc(C(F)(F)F)c1)C(F)(F)F (centres unmarked) [Ia-145] | – | HPLC-MS: logP = 3.69; mass | efficacy in % (fertile eggs laid) (Boophilus microplus): 100%
30 | NC(=O)c1ccc(/C=C/C(=O)NC(c2cccc(C(F)(F)F)c2)C(F)(F)F)cc1Cl (centres unmarked) [Ia-157] | – | HPLC-MS: logP = 2.75; mass | efficacy in % (fertile eggs laid) (Boophilus microplus): 100%
31 | O=C(/C=C/c1ccc(C(=O)NCc2nccs2)c(Cl)c1)NC(c1cccc(C(F)(F)F)c1)C(F)(F)F (centres unmarked) [Ia-159] | – | HPLC-MS: logP = 3.13; mass | efficacy in % (fertile eggs laid) (Boophilus microplus): 100%
32 | CCOC1(NC(=O)c2ccc(/C=C/C(=O)NC(c3cccc(C(F)(F)F)c3)C(F)(F)F)cc2Br)CC1 (centres unmarked) [Ia-237] | – | HPLC-MS: logP = 3.42; mass | efficacy in % (fertile eggs laid) (Boophilus microplus): 100%
33 | O=C(/C=C/c1ccc(CNC(=O)C2CCC2)c(C(F)(F)F)c1)NC(c1cccc(C(F)(F)F)c1)C(F)(F)F (centres unmarked) [Ia-267] | – | – | efficacy in % ([3]; application rate 100 g/ha): 100%; logP [2, 5]: HPLC-MS: logP = 3.9; mass
34 | O=C(/C=C/c1ccc(CNS(=O)(=O)C2CC2)c(C(F)(F)F)c1)NC(c1cccc(C(F)(F)F)c1)C(F)(F)F (centres unmarked) [Ia-271] | – | – | efficacy in % ([3]; application rate 100 g/ha): 100%; logP [2, 5]: HPLC-MS: logP = 3.74; mass
35 | CCC(=O)NCc1ccc(/C=C/C(=O)NC(c2ccc(F)c(C(F)(F)F)c2)C(F)(F)F)cc1C(F)(F)F (centres unmarked) [Ia-272] | – | – | efficacy in % ([3]; application rate 100 g/ha): 100%; logP [2, 5]: HPLC-MS: logP = 3.61; mass
36 | CCC(=O)NC(C)c1ccc(/C=C/C(=O)NC(c2cccc(C(F)(F)F)c2)C(F)(F)F)cc1F (centres unmarked) [Ia-273] | – | – | efficacy in % ([3]; application rate 100 g/ha): 100%; logP [2, 5]: HPLC-MS: logP = 3.3; mass
37 | CCC(=O)NC(C)c1ccc(/C=C/C(=O)NC(c2ccc(F)c(Cl)c2)C(F)(F)F)cc1F (centres unmarked) [Ia-274] | – | – | efficacy in % ([3]; application rate 100 g/ha): 100%; logP [2, 5]: HPLC-MS: logP = 3.23; mass
38 | CCC(=O)NC(C)c1ccc(/C=C/C(=O)NC(c2ccc(F)c(C(F)(F)F)c2)C(F)(F)F)cc1F (centres unmarked) [Ia-275] | – | – | efficacy in % ([3]; application rate 100 g/ha): 100%; logP [2, 5]: HPLC-MS: logP = 3.38; mass
39 | CN(C(=O)c1ccc(/C=C/C(=O)NC(c2ccc(F)c(C(F)(F)F)c2)C(F)(F)F)cc1C(F)(F)F)c1ccccn1 (centres unmarked) [Ia-281] | – | – | efficacy in % ([3]; application rate 100 g/ha): 100%; logP [2, 5]: HPLC-MS: logP = 3.63; mass
40 | O=C(/C=C/c1ccc(C(=O)NC2CC2)c(C(F)(F)F)c1)NC(c1cccc(Br)c1)C(F)(F)F (centres unmarked) [Ia-284] | – | – | efficacy in % ([3]; application rate 100 g/ha): 100%; logP [2, 5]: HPLC-MS: logP = 3.35; mass
41 | O=C(/C=C/c1ccc(C(=O)Nc2ccccn2)c(C(F)(F)F)c1)NC(c1cncc(C(F)(F)F)c1)C(F)(F)F (centres unmarked) [Ib-2] | – | – | efficacy in % ([3]; application rate 500 g/ha): 83%; logP [2, 4]: HPLC-MS: logP = 3.02 mass (m/z):
42 | N#Cc1ccc2[nH]c(C(=O)NC(c3cccc(C(F)(F)F)c3)C(F)(F)F)cc2c1 (centres unmarked) [Ic-4] | – | – | efficacy in % ([3]; application rate 500 g/ha): 83%; logP [2, 4]: HPLC-MS: logP = 3.48; mass
43 | O=C(/C=C/c1ccc2c(c1)CCC2NC(=O)CC1CC1)NC(c1cccc(C(F)(F)F)c1)C(F)(F)F (centres unmarked) [Ie-2] | – | – | efficacy in % ([3]; application rate 100 g/ha): 100%; logP [2, 4]: HPLC-MS: logP = 3.54; mass
